Assay results taken from patent publication US12433876B2, “Septin inhibitors for treatment of cancers” (UNIVERSITY OF ROCHESTER, priority 2019, dated 2025).

Columns and labels:
ECC-1 cells = experiment: MTS cell viability, ECC-1; type: cell-based; settings: ECC-1, 48 hours
Method: (§1) Cell lines, Culture, and Reagents. Cells were maintained in either DMEM (SKOV-3, KLE, OVCAR-3, OVCAR8-C5 and IGROV-1) or RPMI-1640 (ECC-1 and HCH-1), supplemented with 10% fetal calf serum (or 20% for OVCAR-3), penicillin (100 units/mL), and streptomycin (100 μg/mL) at 37° C. with 5% CO2 in a humidified incubator. Antibodies were purchased from Abcam (septin-2; ab179436) and Cell Signaling Technology; ERK (9102), p-ERK (4370), -actin (3700), u-Tubulin (2144), EGFR (4267) and HER2 (4290). FCF was purchased from Abcam. All other chemicals were from Sigma Aldrich. Synthesis of Derivaties. […] The reaction was monitored using thin-layer chromatography plates with DCM-MeOH or pure ethyl acetate as eluent. Spots were monitored in a UV chamber. The reaction mixture, upon completion of the reaction, was poured into wet ice mixture and triturated, then the separated solid was filtered by vacuum. The product was washed with hexane, followed by diethyl ether, and was dried under vacuum. The compounds were characterized by spectrophotometric techniques. Quantitative Real-Time PCR. The indicated cell lines were transfected with siRNA targeting septin-2 or non-targeting control siRNA (Santa Cruz Biotechnology: sc-37007 or sc-40936) using Lipofectamine 3000 (Invitrogen). […] Quantitative real-time PCR was conducted using QuantStudio 12 K Flex Real-Time PCR System (ABI) and the Taqman Gene Expression Assay (ABI) consisting of the FAM-labeled probes as follows: SEPT2 (Hs01565417_ml); WFDC2 (Hs00899484_ml); TBP (Hs00427620_ml) or B2M (Hs00187842_ml), which was used as reference for normalization. […] Cell viability, proliferation, and cellular apoptosis were measured using the MTS (Promega), BrdU cell proliferation (Cell Signaling Technology), and Caspase-Glo 3/7 apoptosis detection (Promega) assays, following the respective manufacturer's recommendations with suitable modification. […] Survival curves between septin high and low population and their statistical significance were analyzed using GraphPad Prism software (Mantel-Cox test). […]

HER2 = experiment: Western blot of HER2 expression in ECC-1 and HCH-1 cells; type: cell-based; settings: UR214-7 33 μM, UR214-9 33 μM, FCF 300 μM, 24 hours
Method: as §1

EGFR = experiment: Western blot of EGFR expression; type: cell-based; settings: UR214-7 33 μM, UR214-9 33 μM; 24 hours
Method: Cell lines, Culture, and Reagents. Cells were maintained in either DMEM (SKOV-3, KLE, OVCAR-3, OVCAR8-C5 and IGROV-1) or RPMI-1640 (ECC-1 and HCH-1), supplemented with 10% fetal calf serum (or 20% for OVCAR-3), penicillin (100 units/mL), and streptomycin (100 μg/mL) at 37° C. with 5% CO2 in a humidified incubator. Antibodies were purchased from Abcam (septin-2; ab179436) and Cell Signaling Technology; ERK (9102), p-ERK (4370), -actin (3700), u-Tubulin (2144), EGFR (4267) and HER2 (4290). FCF was purchased from Abcam. All other chemicals were from Sigma Aldrich. Synthesis of Derivaties. […] The reaction was monitored using thin-layer chromatography plates with DCM-MeOH or pure ethyl acetate as eluent. Spots were monitored in a UV chamber. […] Quantitative Real-Time PCR. […] Quantitative real-time PCR was conducted using QuantStudio 12 K Flex Real-Time PCR System (ABI) and the Taqman Gene Expression Assay (ABI) consisting of the FAM-labeled probes as follows: SEPT2 (Hs01565417_ml); WFDC2 (Hs00899484_ml); TBP (Hs00427620_ml) or B2M (Hs00187842_ml), which was used as reference for normalization. […] Cell viability, proliferation, and cellular apoptosis were measured using the MTS (Promega), BrdU cell proliferation (Cell Signaling Technology), and Caspase-Glo 3/7 apoptosis detection (Promega) assays, following the respective manufacturer's recommendations with suitable modification. […]

pSTAT-3 = experiment: Immunoblot of phosphorylated STAT-3; type: cell-based
septin-6 = experiment: Immunoblot of septin-6 expression; type: cell-based; settings: 48 hours
PANC-1 cells = experiment: Cell cycle analysis (PI, flow cytometry), PANC-1; type: cell-based, human
Method: For cell cycle analysis, BXPC-3 and PANC-1 and JIMT-1 cells (100,000/well) were seeded overnight in a 6 well dishes and allowed to adhere overnight. Media was replaced with fresh complete medium supplemented with DMSO or UR214-9 (100 nM and 3 μM) and cells were incubated for 72 hours. The media containing the drugs was removed and cells were washed twice with PBS and trypsinized gently. The cells were collected in 15 mL tubes, complete DMEM media was added to block trypsin and cells were centrifuged. The supernatants were removed and cells were gently treated with 70% cold-EtOH for 30 minutes. The fixed cells were centrifuged and the pellets obtained were collected in flow cytometry tubes and stained with preformulated PI/RNase solution (Cell Signaling Technology, catalog number: 4087s) for 30 minutes. The PI content was analyzed using a flow cytometer. Data was processed using Flowjo software.

SMILES	viability (ECC-1 cells; MTS, lower dose ranges)	HER2 expression (HER2)	EGFR expression (EGFR)	concentration inhibiting viability (ECC-1 cells; MTS (FIG. 2B))	phosphorylation of STAT-3 (pSTAT-3; MDA-MB-231, JIMT-1 and MCF-7 cells, 10 and 30 μM, 24 hours)	phosphorylated STAT-3 (pSTAT-3; PANC-1)	septin-6 protein expression levels (western blot) (septin-6; MDA-MB-231, JIMT-1 and MCF-7 cells, 10 and 30 μM)	septin-6 expression (immunoblot) (septin-6; PANC-1, 1.0 and 10.0 μM)	cell cycle distribution (PANC-1 cells; PANC-1, 100 nM)	cell cycle distribution (PANC-1 cells; PANC-1, 3 μM)
O=C(Nc1ccccc1)Nc1ccnc(Cl)c1 [FCF, N-(2-chloro-4-pyridyl)-N′-phenylurea, reference compound]	lacked activity	inhibition of HER2 expression								
O=C(Nc1cc(Cl)nc(Cl)c1)Nc1cccc(SC(F)(F)F)c1F [UR214-9]		inhibition of HER2 expression	did not have an effect	around 33 μM	reduced phosphorylation of STAT-3	reduced phosphorylated STAT-3	does not alter the protein expression levels	unaffected	minor S-phase arrest	complete arrest in sub-G1/G0 phase
